Here are results for 40 molecules from the supplement of paper PMC9265050, “Inhibition of RNA Binding in SND1 Increases the Levels of miR-1-3p and Sensitizes Cancer Cells to Navitoclax” (Cancers, 2022).

For the test, the system named is SW480. The test is described as follows: drug sensitivity score (DSS, integrated dose-response area); higher = more sensitive (stronger viability reduction); extreme values may be limits of the assay. The procedure, abridged: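 SW480 cells stably carrying doxycycline-inducible control or SND1-targeting shRNA were induced with 0.1 µg/mL doxycycline for 7 days. They were then plated at 1000 cells per well in 384-well plates holding 525 commercially available small-molecule inhibitors at five concentrations. Viability was read with CellTiter-Glo after 72 h. The drug sensitivity score integrates the area under a fitted non-linear dose–response model.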

Setting [1] is: shRNA: SND1 shRNA1 (SND1 silenced).
Where [2] appears, read: shRNA: control shRNA (non-targeting).
[3] abbreviates: shRNA: SND1 shRNA2 (SND1 silenced).

On to `CN(Cc1cnc2nc(N)nc(N)c2n1)c1ccc(C(=O)N[C@@H](CCC(=O)O)C(=O)O)cc1` [Methotrexate], for which the drug sensitivity score runs as follows: under setting [1], 11.7 DSS; under setting [2], 7.4 DSS.
As for `C[C@H]1C[C@@H]2[C@H]([C@@H](O)C[C@@]3(C)[C@H]2CC[C@]3(O)C(=O)CO)[C@@]2(C)C=CC(=O)C=C12` [Methylprednisolone], the drug sensitivity score stood at 0 DSS under setting [1], 1.4 DSS under setting [3] and 0 DSS under setting [2].
Turning to `CO[C@@H]1[C@H](N(C)C(=O)c2ccccc2)C[C@H]2O[C@]1(C)n1c3ccccc3c3c4c(c5c6ccccc6n2c5c31)C(=O)NC4` [Midostaurin], the drug sensitivity score reads like this: under setting [1], 14.3 DSS; under setting [3], 14.7 DSS; under setting [2], 14.5 DSS.
Take `CNC(=O)c1nn(C)c2c1C(C)(C)Cc1cnc(Nc3ccc(N4CCN(C)CC4)cc3)nc1-2` [Milciclib]: the drug sensitivity score under setting [1] is 11.4 DSS, the drug sensitivity score under setting [3] is 10.9 DSS and the drug sensitivity score under setting [2] stood at 9.2 DSS.
In turn, `CO[C@@]12[C@H](COC(N)=O)C3=C(C(=O)C(C)=C(N)C3=O)N1C[C@@H]1N[C@@H]12` [Mitomycin C] registered a drug sensitivity score under setting [1] of 2.7 DSS, a drug sensitivity score under setting [3] of 2.1 DSS and a drug sensitivity score under setting [2] of 1 DSS.
Take `Clc1ccc(C(c2ccccc2Cl)C(Cl)Cl)cc1` (stereo not drawn) [Mitotane]: the drug sensitivity score by setting is: under setting [1], 0 DSS; under setting [3], 0 DSS; under setting [2], 0 DSS.
Take `O=C1c2c(O)ccc(O)c2C(=O)c2c(NCCNCCO)ccc(NCCNCCO)c21` [Mitoxantrone]: the drug sensitivity score worked out at 1.9 DSS under setting [1], 0.3 DSS under setting [3] and 0.8 DSS under setting [2].
The like results for `Nc1ccccc1NC(=O)c1ccc(CNc2nccc(-c3cccnc3)n2)cc1` [Mocetinostat] were, in that order, 10.2 DSS, 6.1 DSS and 7.8 DSS.
As for `N#CCNC(=O)c1ccc(-c2ccnc(Nc3ccc(N4CCOCC4)cc3)n2)cc1` [Momelotinib], the drug sensitivity score is, setting by setting: under setting [1], 3.8 DSS; under setting [3], 2.1 DSS; under setting [2], 1.9 DSS.
As to `CC1(C)CNc2cc(NC(=O)c3cccnc3NCc3ccncc3)ccc21` [Motesanib], the drug sensitivity score reads like this: under setting [1], 0 DSS; under setting [3], 0.4 DSS; under setting [2], 0 DSS.
Regarding `FC(F)(F)c1ccc(/C=C/c2nc(COc3ccc(CCCCn4ccnn4)cc3)co2)cc1` [Mubritinib], the drug sensitivity score under setting [1] was determined as 3.8 DSS, the drug sensitivity score under setting [3] was 9.3 DSS and the drug sensitivity score under setting [2] stood at 5.5 DSS.
The like results for `Cc1cc(OCc2nnc(SC3CCCC3)n2-c2cccnc2)ccc1-c1ccc(S(C)(=O)=O)cc1` [NMS-873] were, in that order, 9.5 DSS, 10.5 DSS and 9 DSS.
For the molecule `CCN1CCN(Cc2ccc(-c3cc4c(N[C@H](C)c5ccccc5)ncnc4[nH]3)cc2)CC1` [NVP-AEE788], the drug sensitivity score is, setting by setting: under setting [1], 1.5 DSS; under setting [3], 1.3 DSS; under setting [2], 2.8 DSS.
On to `CCN1CCN(c2ccc(Nc3cc(N(C)C(=O)Nc4c(Cl)c(OC)cc(OC)c4Cl)ncn3)cc2)CC1` [NVP-BGJ398], for which the drug sensitivity score runs as follows: under setting [1], 0 DSS; under setting [3], 0 DSS; under setting [2], 0 DSS.
`COc1ccc(-c2ccc3ncc4c(c3c2)n(-c2ccc(N3CCNCC3)c(C(F)(F)F)c2)c(=O)n4C)cn1` [NVP-BGT226]: the drug sensitivity score amounted to 18.6 DSS under setting [1], 20.6 DSS under setting [3] and 19 DSS under setting [2].
For the molecule `CNC(=O)c1ccc(-c2cnc3ncc(Cc4ccc5ncccc5c4)n3n2)cc1F` [NVP-INC280], the drug sensitivity score runs as follows: under setting [1], 0 DSS; under setting [3], 5.7 DSS; under setting [2], 5.8 DSS.
`CC1(C)CCC(c2ccc(Cl)cc2)=C(CN2CCN(c3ccc(C(=O)NS(=O)(=O)c4ccc(N[C@H](CCN5CCOCC5)CSc5ccccc5)c(S(=O)(=O)C(F)(F)F)c4)cc3)CC2)C1` [Navitoclax]: the drug sensitivity score was found to be 7.4 DSS under setting [1], 5.6 DSS under setting [3] and 0 DSS under setting [2].
For the molecule `COc1nc(N)nc2c1ncn2[C@@H]1O[C@H](CO)[C@@H](O)[C@@H]1O` [Nelarabine], the drug sensitivity score is, setting by setting: under setting [1], 0 DSS; under setting [3], 0 DSS; under setting [2], 0 DSS.
Take `CCOc1cc2ncc(C#N)c(Nc3ccc(OCc4ccccn4)c(Cl)c3)c2cc1NC(=O)/C=C/CN(C)C` [Neratinib]: the drug sensitivity score is 3.9 DSS under setting [1], 4.3 DSS under setting [3] and 4 DSS under setting [2].
Taken in the same sequence, the figures for `Cc1cn(-c2cc(NC(=O)c3ccc(C)c(Nc4nccc(-c5cccnc5)n4)c3)cc(C(F)(F)F)c2)cn1` [Nilotinib] were 2.6 DSS, 3.8 DSS and 1.6 DSS.
Regarding `CC1(C)NC(=O)N(c2ccc([N+](=O)[O-])c(C(F)(F)F)c2)C1=O` [Nilutamide], the drug sensitivity score by setting is: under setting [1], 0 DSS; under setting [3], 0 DSS; under setting [2], 0 DSS.
Consider `COC(=O)c1ccc2c(c1)NC(=O)/C2=C(\Nc1ccc(N(C)C(=O)CN2CCN(C)CC2)cc1)c1ccccc1` [Nintedanib], for which the drug sensitivity score is, setting by setting: under setting [1], 8.4 DSS; under setting [3], 6.8 DSS; under setting [2], 0 DSS.
For `NC(=O)c1cccc2cn(-c3ccc([C@@H]4CCCNC4)cc3)nc12` [Niraparib], the drug sensitivity score reads like this: under setting [1], 3.3 DSS; under setting [3], 1.1 DSS; under setting [2], 4.9 DSS.
Taken in the same sequence, the figures for `COc1ccc(C2=N[C@@H](c3ccc(Cl)cc3)[C@@H](c3ccc(Cl)cc3)N2C(=O)N2CCNC(=O)C2)c(OC(C)C)c1` [Nutlin-3] were 0 DSS, 0 DSS and 0.2 DSS.
Take `COc1cccc2cc(-c3nc([C@H]4CC[C@H](C(=O)O)CC4)n4ncnc(N)c34)[nH]c12` [OSI-027]: the drug sensitivity score was 5.4 DSS under setting [1], 7.1 DSS under setting [3] and 2.5 DSS under setting [2].
`O=C(Nc1ccc(OC(F)(F)F)cc1)c1sccc1NCc1ccnc2ccccc12` [OSI-930]: the drug sensitivity score runs as follows: under setting [1], 1.8 DSS; under setting [3], 6.5 DSS; under setting [2], 6.3 DSS.
`CC(=O)c1cnc2ccc(-c3cc(Cl)c(O)c(Cl)c3)nc2c1N[C@H]1CC[C@H](CN(C)C)CC1` [OTSSP167]: the drug sensitivity score by setting is: under setting [1], 9.8 DSS; under setting [3], 8.7 DSS; under setting [2], 10.6 DSS.
Regarding `Cc1sc2c(c1C)C(c1ccc(Cl)cc1)=N[C@@H](CC(=O)Nc1ccc(O)cc1)c1nnc(C)n1-2` [OTX015], the drug sensitivity score under setting [1] turned out to be 1.9 DSS, the drug sensitivity score under setting [3] turned out to be 0.8 DSS and the drug sensitivity score under setting [2] is 0.7 DSS.
Take `COC1=CC(c2cc3ccccc3[nH]2)=N/C1=C\c1[nH]c(C)cc1C` [Obatoclax]: the drug sensitivity score under setting [1] turned out to be 2.5 DSS, the drug sensitivity score under setting [3] was 0 DSS and the drug sensitivity score under setting [2] was 0.1 DSS.
As for `O=C(c1cc(Cc2n[nH]c(=O)c3ccccc23)ccc1F)N1CCN(C(=O)C2CC2)CC1` [Olaparib], the drug sensitivity score came out at 2.7 DSS under setting [1], 0 DSS under setting [3] and 0 DSS under setting [2].
In the case of `COC(=O)C[C@](O)(CCCC(C)(C)O)C(=O)O[C@@H]1C(OC)=C[C@]23CCCN2CCc2cc4c(cc2[C@H]13)OCO4` [Omacetaxine], the drug sensitivity score came out at 21.9 DSS under setting [1], 23.5 DSS under setting [3] and 23.3 DSS under setting [2].
`COc1ncc(-c2ccc3nccc(-c4ccnnc4)c3c2)cc1NS(=O)(=O)c1ccc(F)cc1F` [Omipalisib]: the drug sensitivity score under setting [1] was found to be 13.7 DSS, the drug sensitivity score under setting [3] stood at 12.4 DSS and the drug sensitivity score under setting [2] came out at 9.7 DSS.
`CC(C)c1cc(C(=O)N2Cc3ccc(CN4CCN(C)CC4)cc3C2)c(O)cc1O` [Onalespib]: the drug sensitivity score amounted to 11.3 DSS under setting [1], 9.4 DSS under setting [3] and 13.8 DSS under setting [2].
`COC[C@H](NC(=O)c1cnc(C)s1)C(=O)N[C@@H](COC)C(=O)N[C@@H](Cc1ccccc1)C(=O)[C@@]1(C)CO1` [Oprozomib]: the drug sensitivity score was determined as 17.7 DSS under setting [1], 16.5 DSS under setting [3] and 19 DSS under setting [2].
The molecule `Cc1[nH]c(/C=C2\C(=O)Nc3ccccc32)c(C)c1CCC(=O)O` [Orantinib] showed a drug sensitivity score under setting [1] of 0 DSS, a drug sensitivity score under setting [3] of 0 DSS and a drug sensitivity score under setting [2] of 0.1 DSS.
For `CNC(=O)c1ccc2cc([C@@]3(O)CCn4cncc43)ccc2c1` [Orteronel], the drug sensitivity score by setting is: under setting [1], 0 DSS; under setting [3], 0 DSS; under setting [2], 0 DSS.
For `C=CC(=O)Nc1cc(Nc2nccc(-c3cn(C)c4ccccc34)n2)c(OC)cc1N(C)CCN(C)C` [Osimertinib], the drug sensitivity score is 8.5 DSS under setting [1], 3.6 DSS under setting [3] and 9.6 DSS under setting [2].
The molecule `O=C(O)C(=O)O.[NH-][C@@H]1CCCC[C@H]1[NH-].[Pt+2]` [Oxaliplatin] returned a drug sensitivity score under setting [1] of 14 DSS and a drug sensitivity score under setting [2] of 16.7 DSS.
In turn, `C=CCc1cccc(/C=N/NC(=O)CN2CCN(Cc3ccccc3)CC2)c1O` [PAC-1] gave a drug sensitivity score under setting [1] of 6.8 DSS, a drug sensitivity score under setting [3] of 6.3 DSS and a drug sensitivity score under setting [2] of 7 DSS.
The like results for `O=C(Nc1cccnc1)N1CCC(Cc2cccc(Oc3ccc(C(F)(F)F)cn3)c2)CC1` [PF-3845] were, in that order, 0.1 DSS, 2.4 DSS and 0.3 DSS.
